Experimental data as given in US20230250096A1, “SUBSTITUTED PHENYL-1H-PYRROLO[2,3-c] PYRIDINE DERIVATIVES” (Janssen Pharmaceutica NV, priority 2021, published 2023).

Tests used:
MEIS1 mRNA expression = MEIS1 mRNA expression assay (Quantigene Singleplex) in MOLM14 cells; type: cell-based, human; settings: 48 hours incubation
Summary of the method: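 MOLM14 cells, 3,750/well, exposed to increasing compound concentrations for 48 h. MEIS1 mRNA measured by QuantiGene Singleplex branched-DNA hybridization (lysis 45 min, hybridization 18–22 h, both 55 °C), normalized to RPL28. IC50 fitted to background-corrected fold change versus DMSO.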

[1] = target: T1, menin/MLL (terbium chelate-labeled menin, FITC-MBM1 peptide) (Homo sapiens, UniProt O00255, T541A); assay: Menin/MLL homogenous time-resolved fluorescence (HTRF) assay; type: binding; settings: 30 min incubation
T1 construct: Menin (a.a 1-610-6xhis tag, 2.3 mg/mL in 20 mM Hepes)
T1 sequence (O00255 with tags, fused parts or gaps T541A): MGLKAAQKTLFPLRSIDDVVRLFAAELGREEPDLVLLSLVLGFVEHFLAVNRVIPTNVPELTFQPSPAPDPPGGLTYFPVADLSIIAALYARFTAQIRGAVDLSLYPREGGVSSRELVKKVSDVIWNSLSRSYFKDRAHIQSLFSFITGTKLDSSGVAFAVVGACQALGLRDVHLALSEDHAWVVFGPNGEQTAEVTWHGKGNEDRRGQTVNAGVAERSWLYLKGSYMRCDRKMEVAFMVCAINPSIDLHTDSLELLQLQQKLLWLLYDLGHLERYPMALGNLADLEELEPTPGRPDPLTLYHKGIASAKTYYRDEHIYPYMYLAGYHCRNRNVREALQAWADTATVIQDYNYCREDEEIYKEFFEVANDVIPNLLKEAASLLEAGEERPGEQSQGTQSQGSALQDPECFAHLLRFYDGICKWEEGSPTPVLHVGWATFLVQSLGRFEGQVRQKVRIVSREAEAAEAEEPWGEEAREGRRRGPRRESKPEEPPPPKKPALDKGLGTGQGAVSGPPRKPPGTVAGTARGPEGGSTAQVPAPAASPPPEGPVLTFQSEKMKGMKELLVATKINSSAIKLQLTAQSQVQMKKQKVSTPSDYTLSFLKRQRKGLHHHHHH
Summary of the method: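 Terbium-labeled menin (a.a. 1-610, His-tagged; […]) pre-incubated 30 min with compound, then 75 nM FITC-MBM1 peptide added for 15 min at ambient temperature in Tris pH 7.5 buffer, 0.5% DMSO. HTRF 520/490 nm ratio read; IC50 from 11-point four-fold titrations, typically from 10 μM.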

Row | SMILES | IC50 (MEIS1 mRNA expression) | IC50 [1] | IC50 (MEIS1 mRNA expression; Homo sapiens, MOLM-14, 48 h)
1 | CC(=O)N1CCC(CN2CCC(Cc3cn(-c4ccc(F)cc4C(=O)N(C)C(C)C)c4cncc(C)c34)C2C)CC1 (centres unmarked) [Compound 226] | 269 nM | 0.255 nM | 
2 | CC(=O)N1CCC(CN2CCC(Cc3cn(-c4ccc(F)cc4C(=O)N(C)C(C)C)c4cncc(C)c34)C2C)CC1 (centres unmarked) [Compound 227] | 551 nM | 0.655 nM | 
3 | CC(=O)N1CCC(CN2CCC(Cc3cn(-c4ccc(F)cc4C(=O)N(C)C(C)C)c4cncc(C)c34)C2C)CC1 (centres unmarked) [Compound 229] | 93 nM | 0.235 nM | 
4 | Cc1cncc2c1c(CC1CCN(CC3CCN(C(=O)N(C)C)CC3)CC1)cn2-c1ccc(F)cc1C(=O)N(C)C(C)C [Compound 235] |  | 0.097 nM | 14 nM
5 | CNC(=O)[C@H]1CC[C@@H](CN2CC[C@H](Cc3cn(-c4ccc(F)cc4C(=O)N(C)C(C)C)c4cncc(C)c34)C2)CC1 [Compound 236] |  | 0.086 nM | ~98.9 nM
6 | Cc1cncc2c1c(CC1CCN(CC3CCN(C(=O)C(C)(C)O)CC3)CC1)cn2-c1ccc(F)cc1C(=O)N(C)C(C)C [Compound 237] |  | 0.149 nM | 52 nM
7 | CC(=O)N1CCC(CN2CC[C@@H](Cc3cn(-c4ccc(F)cc4C(=O)NC(C)C)c4cncc(C)c34)C2)CC1 [Compound 238] |  | 1.94 nM | > 1000 nM
8 | Cc1cncc2c1c(CC1(C)CCN(CC3CCOCC3)C1)cn2-c1ccc(F)cc1C(=O)N(C)C(C)C (centres unmarked) [Compound 239] |  | 0.305 nM | 138 nM
9 | CNC(=O)[C@H]1CC[C@@H](CN2CC(Cc3cn(-c4ccc(F)cc4C(=O)N(C)C(C)C)c4cncc(C)c34)C2)CC1 [Compound 241] |  | 0.084 nM | 173 nM
10 | CC(=O)N1CCC(C)C(N2CC[C@@H](Cc3cn(-c4ccc(F)cc4C(=O)N(C)C(C)C)c4cncc(C)c34)C2)C1 (some centres unmarked) [Compound 242] | > 1000 nM | 0.811 nM | 
11 | CC(=O)N1CCC(C)C(N2CC[C@@H](Cc3cn(-c4ccc(F)cc4C(=O)N(C)C(C)C)c4cncc(C)c34)C2)C1 (some centres unmarked) [Compound 243] | 37 nM | 0.097 nM | 
12 | Cc1cncc2c1c(C[C@H]1CCN(CC3CCN(C(=O)C(C)(C)O)CC3)C1)cn2-c1ccc(F)cc1C(=O)N(C)C(C)C [Compound 244] |  | 0.101 nM | 51 nM
13 | Cc1cncc2c1c(C[C@H]1CCN(CC3CCN(C(=O)C4(O)CC4)CC3)C1)cn2-c1ccc(F)cc1C(=O)N(C)C(C)C [Compound 245] |  | 0.185 nM | 65 nM
14 | Cc1cncc2c1c(C[C@@H]1CCN(CC3CCN(C(=O)C4(O)CC4)CC3)C1)cn2-c1ccc(F)cc1C(=O)N(C)C(C)C [Compound 249] |  | 0.023 nM | 7 nM
15 | Cc1cncc2c1c(CC1CN(CC3CCN(C(=O)C(C)(C)O)CC3)C1)cn2-c1ccc(F)cc1C(=O)N(C)C(C)C [Compound 250] |  | 0.076 nM | 30 nM
16 | Cc1cncc2c1c(CC1CN(CC3CCN(C(=O)C4(O)CC4)CC3)C1)cn2-c1ccc(F)cc1C(=O)N(C)C(C)C [Compound 251] |  | 0.066 nM | 83 nM
17 | CCN(C(=O)c1cc(F)ccc1-n1cc(C[C@@H]2CCN(CC3CCN(C(C)=O)CC3)C2)c2c(C)cncc21)C(C)C [Compound 255] |  | 0.102 nM | 10 nM
18 | CCN(C(=O)c1cc(F)ccc1-n1cc(C[C@H]2CCN(CC3CCN(C(C)=O)CC3)C2)c2c(C)cncc21)C(C)C [Compound 256] |  | 0.073 nM | 20 nM
19 | CCN(C(=O)c1cc(F)ccc1-n1cc(C[C@@H]2CCN(CC3CCOCC3)C2)c2c(C)cncc21)C(C)C [Compound 257] |  | 0.031 nM | 7 nM
20 | CC(=O)N1CCC(CN2CC[C@@H](Cc3cn(-c4ccc(F)cc4C(=O)N(C(C)C)C(C)C)c4cncc(C)c34)C2)CC1 [Compound 258] |  | 0.021 nM | 11 nM
21 | CCc1cncc2c1c(C[C@@H]1CCN(CC3CCN(C(C)=O)CC3)C1)cn2-c1ccc(F)cc1C(=O)N(C)C(C)C [Compound 259] |  | 0.031 nM | 138 nM
22 | CCc1cncc2c1c(C[C@H]1CCN(CC3CCN(C(C)=O)CC3)C1)cn2-c1ccc(F)cc1C(=O)N(C)C(C)C [Compound 260] |  | 0.042 nM | ~27.6 nM
23 | Cc1cncc2c1c(CC1CN(CC3CCOCC3)C1)cn2-c1ccc(F)cc1C(=O)N1CCC12CCC2 [Compound 261] |  | 0.213 nM | 217 nM
24 | Cc1cncc2c1c(CC1CN(CC3CCOCC3)C1)cn2-c1ccc(F)cc1C(=O)N1C2COCC1C2 [Compound 263] |  | 0.258 nM | 175 nM
25 | Cc1cncc2c1c(CC1CN(CC3CCOCC3)C1)cn2-c1ccc(F)cc1C(=O)N(C)C1CC1 [Compound 265] |  | 0.097 nM | 46 nM
26 | Cc1cncc2c1c(CC1CN(CC3CCOCC3)C1)cn2-c1ccc(F)cc1C(=O)N1CCC12COC2 [Compound 266] |  | 0.349 nM | 431 nM
27 | COCC1CCCN1C(=O)c1cc(F)ccc1-n1cc(CC2CN(CC3CCOCC3)C2)c2c(C)cncc21 (centres unmarked) [Compound 267] |  | 0.24 nM | 166 nM
28 | Cc1cncc2c1c(CC1CN(CC3CCOCC3)C1)cn2-c1ccc(F)cc1C(=O)N(C)C1CCOC1 (centres unmarked) [Compound 269] |  | 1.7 nM | 18 nM
29 | Cc1cncc2c1c(CC1CN(CC3CCOCC3)C1)cn2-c1ccc(F)cc1C(=O)N1CCC(O)C1C (centres unmarked) [Compound 271] |  | 0.368 nM | 288 nM

The remaining lines, values ahead:

Row | IC50 (MEIS1 mRNA expression) | IC50 [1] | IC50 (MEIS1 mRNA expression; Homo sapiens, MOLM-14, 48 h) | SMILES
30 |  | 0.31 nM | ~270 nM | Cc1cncc2c1c(CC1CN(CC3CCOCC3)C1)cn2-c1ccc(F)cc1C(=O)N1CCC(O)C1(C)C (centres unmarked) [Compound 272]
31 |  | 1.08 nM | > 1000 nM | Cc1cncc2c1c(CC1CN(CC3CCOCC3)C1)cn2-c1ccc(F)cc1C(=O)N1CC2(O)CC1C2 [Compound 273]
32 |  | 2.42 nM | > 1000 nM | Cc1cncc2c1c(CC1CN(CC3CCOCC3)C1)cn2-c1ccc(F)cc1C(=O)N(C)[C@H]1C[C@@H](O)C1 [Compound 274]
33 |  | 0.945 nM | > 1000 nM | Cc1cncc2c1c(CC1CN(CC3CCOCC3)C1)cn2-c1ccc(F)cc1C(=O)N(C)[C@H]1C[C@H](O)C1 [Compound 275]
34 |  | 0.532 nM | ~462 nM | Cc1cncc2c1c(CC1CN(CC3CCOCC3)C1)cn2-c1ccc(F)cc1C(=O)N(C)C1(CO)CCC1 [Compound 276]
35 |  | 0.481 nM | ~502 nM | Cc1cncc2c1c(CC1CN(CC3CCOCC3)C1)cn2-c1ccc(F)cc1C(=O)N(C)C1(CO)CC1 [Compound 277]
36 |  | 0.323 nM | 342 nM | Cc1cncc2c1c(CC1CN(CC3CCOCC3)C1)cn2-c1ccc(F)cc1C(=O)N(CCO)C1CC1 [Compound 278]
37 |  | 0.077 nM | 51 nM | Cc1cncc2c1c(CC1CN(CC3CCOCC3)C1)cn2-c1ccc(F)cc1C(=O)N1CCCCC1C (centres unmarked) [Compound 280]
38 |  | 3.27 nM | > 1000 nM | Cc1cncc2c1c(CC1CN(CC3CCOCC3)C1)cn2-c1ccc(F)cc1C(=O)N1C[C@H](O)C[C@@H]1C [Compound 282]
39 |  | 0.61 nM | 440 nM | CNC(=O)c1cccc(CN2CC(Cc3cn(-c4ccc(F)cc4C(=O)N(C)C(C)C)c4cncc(C)c34)C2)c1 [Compound 283]
40 |  | 4.19 nM | ~2360 nM | Cc1ccc(CN2CC(Cc3cn(-c4ccc(F)cc4C(=O)N(C)C(C)C)c4cncc(C)c34)C2)nn1 [Compound 284]
41 |  | 1.49 nM | ~1330 nM | Cc1cc(CN2CC(Cc3cn(-c4ccc(F)cc4C(=O)N(C)C(C)C)c4cncc(C)c34)C2)[nH]n1 [Compound 285]
42 |  | 0.046 nM | 59 nM | Cc1cncc2c1c(CC1CN(CC3(C)COC3)C1)cn2-c1ccc(F)cc1C(=O)N(C)C(C)C [Compound 286]
43 |  | 0.034 nM | 26 nM | Cc1cncc2c1c(CC1CN(CC3CCOC3)C1)cn2-c1ccc(F)cc1C(=O)N(C)C(C)C (centres unmarked) [Compound 287]
44 |  | 0.059 nM | 43 nM | Cc1cncc2c1c(CC1CN(CC3CCCO3)C1)cn2-c1ccc(F)cc1C(=O)N(C)C(C)C (centres unmarked) [Compound 288]
45 |  | 0.055 nM | 31 nM | Cc1cncc2c1c(CC1CN(CC3CCCOC3)C1)cn2-c1ccc(F)cc1C(=O)N(C)C(C)C (centres unmarked) [Compound 289]
46 |  | 0.393 nM | 170 nM | Cc1cncc2c1c(CC1CN(C3CCCNC(=O)C3)C1)cn2-c1ccc(F)cc1C(=O)N(C)C(C)C (centres unmarked) [Compound 290]
47 |  | 0.594 nM | 468 nM | Cc1cncc2c1c(CC1CN(C3CCCN(C)C(=O)C3)C1)cn2-c1ccc(F)cc1C(=O)N(C)C(C)C (centres unmarked) [Compound 291]
48 |  | 0.171 nM | 338 nM | CC(=O)N1CCCC(N2CC(Cc3cn(-c4ccc(F)cc4C(=O)N(C)C(C)C)c4cncc(C)c34)C2)CC1 (centres unmarked) [Compound 295]
49 |  | 0.339 nM | 549 nM | CC(=O)N1CCC2(CCC2N2CC(Cc3cn(-c4ccc(F)cc4C(=O)N(C)C(C)C)c4cncc(C)c34)C2)CC1 (centres unmarked) [Compound 296]
